Values of other authors in US20090087487A1, “Paliperidone sustained release formulation” (priority 2007, published 2009).

solubility in 0.1 N hydrochloric acid (0.1 N hydrochloric acid): soluble
solubility in methanol (methanol): soluble
solubility in methylene chloride (methylene chloride): freely soluble
solubility in water (water): practically insoluble
SMILES: Cc1nc2n(c(=O)c1CCN1CCC(c3noc4cc(F)ccc34)CC1)CCCC2O (stereo not shown) [Paliperidone, 4H-Pyrido[1,2-a]pyrimidin-4-one, 3-[2-[4-(6-fluoro-1,2-benzisoxazol-3-yl)-1-piperidinyl]ethyl]-6,7,8,9-tetrahydro-9-hydroxy-2-methyl]
